These are literature values, as cited in patent US8569273B2, “Ophthalmic formulations of cetirizine and methods of use” (Aciex Therapeutics, Inc., priority 2009, dated 2013).

Molecules are shown by their SMILES.

For the data set the following is noted: ophthalmic antihistamine.

For `O=C(O)CCCN1CCC(O[C@@H](c2ccc(Cl)cc2)c2ccccn2)CC1` [bepotastine], the duration of action is 8 h.

As to `C[C@@H]1CN([C@H]2CC[C@](C#N)(c3ccc(F)cc3)CC2)CC[C@]1(C(=O)O)c1ccccc1` [levocabastine], the duration of action was 2 to 4 h.
